pKd: −log10 of the molar value. Like-named read-outs stand apart in the source and are kept apart here.
Assays:
YFV-17D^DiD = assay type: cell-based, Yellow fever virus
YFV replicon = assay type: cell-based, Yellow fever virus
YFV = assay type: cell-based, Yellow fever virus
YFV-17D [1] = assay type: cell-based, Yellow fever virus
YFV-17D [2] = assay type: cell-based, Yellow fever virus; remark: listed apart in the source
West Nile virus (WNV) = assay type: cell-based
YFV NS5 = YFV NS5 (Yellow fever virus, UniProt P03314); test: biochemical; assay type: binding
[3] = tested on: WT-YFV strain FJYF03/2016; parameters: species or system C57 mice; settings: mouse, in vivo
dengue virus (DENV) = assay type: cell-based
[4] = tested on: WT-YFV strain FJYF03/2016; parameters: species or system A129^−/− mice; settings: mouse, in vivo
WNV NS5 = WNV NS5 (West Nile virus, UniProt Q9Q6P4); test: biochemical; assay type: binding
YFV-17D [5] = assay type: cell-based, Yellow fever virus; remark: listed apart in the source
WNV = assay type: cell-based, West Nile virus
[6] = tested on: clathrin-mediated endocytosis; assay type: cell-based, Human
YFV-17D [7] = assay type: cell-based, Yellow fever virus; remark: listed apart in the source
Zika virus (ZIKV) = assay type: cell-based
[8] = tested on: Japanese encephalitis virus (JEV); assay type: cell-based
hepatitis C virus (HCV) = assay type: cell-based

YFV NS5, sequence (P03314 2507-3411 limits assumed): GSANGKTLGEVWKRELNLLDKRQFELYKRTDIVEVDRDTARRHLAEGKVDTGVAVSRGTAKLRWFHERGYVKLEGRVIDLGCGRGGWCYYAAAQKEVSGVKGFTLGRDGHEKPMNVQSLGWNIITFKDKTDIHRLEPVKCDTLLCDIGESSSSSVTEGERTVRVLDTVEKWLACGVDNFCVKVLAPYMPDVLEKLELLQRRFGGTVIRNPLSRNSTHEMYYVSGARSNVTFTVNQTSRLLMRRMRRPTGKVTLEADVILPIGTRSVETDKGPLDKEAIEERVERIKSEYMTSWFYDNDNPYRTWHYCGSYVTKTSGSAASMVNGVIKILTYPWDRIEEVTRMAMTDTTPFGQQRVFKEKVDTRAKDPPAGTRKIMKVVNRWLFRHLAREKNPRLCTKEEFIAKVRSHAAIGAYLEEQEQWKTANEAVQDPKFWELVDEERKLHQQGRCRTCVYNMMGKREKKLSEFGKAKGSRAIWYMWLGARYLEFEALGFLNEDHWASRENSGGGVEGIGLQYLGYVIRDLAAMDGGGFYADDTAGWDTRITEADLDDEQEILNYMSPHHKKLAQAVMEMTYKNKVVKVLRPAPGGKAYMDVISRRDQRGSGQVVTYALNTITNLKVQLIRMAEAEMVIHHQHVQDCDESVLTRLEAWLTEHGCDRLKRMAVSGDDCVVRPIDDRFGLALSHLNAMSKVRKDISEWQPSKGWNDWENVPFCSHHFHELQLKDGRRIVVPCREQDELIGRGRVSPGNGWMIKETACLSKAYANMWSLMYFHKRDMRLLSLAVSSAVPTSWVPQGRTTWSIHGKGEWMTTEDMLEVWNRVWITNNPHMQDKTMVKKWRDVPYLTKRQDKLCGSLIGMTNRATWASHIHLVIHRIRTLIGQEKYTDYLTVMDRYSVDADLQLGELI
WNV NS5, sequence (Q9Q6P4 2529-3433 limits assumed): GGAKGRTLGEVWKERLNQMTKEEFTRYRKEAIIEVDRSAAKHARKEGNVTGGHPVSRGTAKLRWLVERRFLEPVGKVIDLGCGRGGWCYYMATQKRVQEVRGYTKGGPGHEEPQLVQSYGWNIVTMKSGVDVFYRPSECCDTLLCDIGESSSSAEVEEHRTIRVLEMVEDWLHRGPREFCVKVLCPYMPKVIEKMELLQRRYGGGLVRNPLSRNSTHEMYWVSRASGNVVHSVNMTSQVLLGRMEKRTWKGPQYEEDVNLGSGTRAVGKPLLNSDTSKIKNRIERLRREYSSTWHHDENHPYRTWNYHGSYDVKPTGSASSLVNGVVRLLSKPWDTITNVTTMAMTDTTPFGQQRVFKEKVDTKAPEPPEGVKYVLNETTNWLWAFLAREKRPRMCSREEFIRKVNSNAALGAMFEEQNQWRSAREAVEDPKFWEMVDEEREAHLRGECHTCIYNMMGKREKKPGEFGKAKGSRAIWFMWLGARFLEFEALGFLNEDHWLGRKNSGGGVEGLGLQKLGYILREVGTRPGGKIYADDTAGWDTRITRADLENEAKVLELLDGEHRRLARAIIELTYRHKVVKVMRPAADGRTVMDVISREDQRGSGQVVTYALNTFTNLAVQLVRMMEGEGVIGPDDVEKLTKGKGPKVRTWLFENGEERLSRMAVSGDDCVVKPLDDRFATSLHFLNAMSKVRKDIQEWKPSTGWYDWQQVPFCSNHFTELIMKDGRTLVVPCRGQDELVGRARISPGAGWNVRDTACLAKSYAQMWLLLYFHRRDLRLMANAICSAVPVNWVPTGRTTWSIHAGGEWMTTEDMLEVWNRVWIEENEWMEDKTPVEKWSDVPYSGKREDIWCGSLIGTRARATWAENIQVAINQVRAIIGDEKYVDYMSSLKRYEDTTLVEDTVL

Compound: Cl.N [NH4Cl]
- virion-host cell fusion (DiD fluorescence signal) (YFV-17D^DiD): fluorescence signal reduced significantly

Compound: CO[C@H]1/C=C/O[C@@]2(C)Oc3c(C)c(O)c4c(O)c(c(/C=N/N5CCN(C6CCCC6)CC5)c(O)c4c3C2=O)NC(=O)/C(C)=C\C=C\[C@H](C)[C@H](O)[C@@H](C)[C@@H](O)[C@@H](C)[C@H](OC(C)=O)[C@@H]1C [Rifapentine]
- YFV replication in replicon cells (YFV replicon): robustly abolished YFV replication from 1 to 25 μM
- YFV assembly and release (YFV): did not influence YFV assembly and release
- YFV attachment to the cell surface (YFV-17D [1]): impeded YFV attachment to the cell surface in a dose-dependent manner
- intracellular YFV RNA level (YFV-17D [2]): suppressed in a dose-dependent manner
- inhibitory effect on WNV infection (West Nile virus (WNV)): slight suppressive activity above 5 μM
- pKd (YFV NS5): 4.68
- body weight of surviving mice [3]: all recovered to normal levels
- clinical symptoms [3]: fewer injury features
- survival of mice [3]: significantly improved the survival of mice
- survival rate [3]: approximately 40%
- inhibitory effect on DENV infection (dengue virus (DENV)): no obvious inhibitory effect
- body weight of survival mice [4]: recovered to almost the normal level
- clinical signs [4]: slowed down or reduced the occurrence of clinical signs
- survival rate [4]: significantly enhanced the survival rate
- virus titres in kidney [4]: did not recognize distinctive changes
- virus titres in liver [4]: did not recognize distinctive changes
- virus titres in serum [4]: reduced virus titres significantly
- virus titres in spleen [4]: reduced virus titres significantly
- pKd (WNV NS5): 4.26
- effect on YFV infection in kinetic test (YFV-17D [5]): obstructive effect on YFV infection throughout the entire phase of viral entry and post-entry stages
- WNV binding (WNV): did not affect WNV binding
- TF uptake [6]: No major changes
- infectivity of virions incubated with compound (YFV-17D [7]): no obvious differences in infectivity
- virion-host cell fusion (DiD fluorescence signal) (YFV-17D^DiD): no inhibitory effect
- inhibitory effect on ZIKV infection (Zika virus (ZIKV)): no obvious inhibitory effect
- inhibitory effect on JEV infection [8]: no obvious inhibitory effect
- inhibitory effect on HCV infection (hepatitis C virus (HCV)): no obvious inhibitory effect

Compound: CC(C)OC(=O)[C@H](C)N[P@](=O)(OC[C@H]1O[C@@H](n2ccc(=O)[nH]c2=O)[C@](C)(F)[C@@H]1O)Oc1ccccc1 [Sofosbuvir]
- YFV replication in replicon cells (YFV replicon): relatively good inhibitory effect
- pKd (YFV NS5): 2.21
- survival rate [4]: slight protective activity in the highest infection-dose group

Compound: CO/C1=C\C(C)=C\[C@@H](C)[C@@H](O)[C@@H](C)C/C(C)=C/C=C/[C@H](OC)[C@@H]([C@@H](C)[C@@H](O)[C@H](C)[C@@]2(O)C[C@@H](O)[C@H](C)[C@@H](C(C)C)O2)OC1=O [bafilomycin A1]
- virion-host cell fusion (DiD fluorescence signal) (YFV-17D^DiD): fluorescence signal reduced significantly

Source: publication PMC8942558 (Emerging Microbes & Infections, 2022)
